The values that follow come from patent EP1140895B1, “THIOPYRAN COMPOUNDS AS INHIBITORS OF MMP” (FUJISAWA PHARMACEUTICAL CO., LTD., priority 1999, dated 2000).

This assay has as its target T1, human MMP-13 (Homo sapiens, UniProt P45452).
T1 construct: truncated form of human recombinant MMP-13; purchased Chondrex, USA
Kind of assay: Inhibitory activity of human MMP-13. It is filed as biochemical. The settings on record: commercial kit, truncated form of human recombinant MMP-13, fluorogenic peptide substrate, 1 hour at 35°C. The procedure:
The inhibitory potential of test compounds against human MMP-13 were assayed by using commercial kit (Chondrex, USA) contained truncated form of human recombinant MMP-13 and fluorogenic peptide substrate. Activity of human MMP-13 was determined by monitoring the degradation of fluorogenic peptide substrate after incubation for 1 hour at 35°C and estimated by measuring the fluorescence intensity of degraded peptide substrate at 495 nm (excitation) and 520 nm (emission).
Inhibitory activity of human MMP-13 as mentioned above.

The IC50 is the point on the concentration scale where inhibition reaches its midpoint. On to `O=C(CC1(c2ccc(Oc3ccc(Cl)cc3)cc2)CCCCS1(=O)=O)NO` (single isomer, unassigned) [Example 15, (R or S)-(-)-2-[4-(4-chlorophenoxy)phenyl]-3,4,5,6-tetrahydro-N-hydroxy-2H-thiopyran-2-acetamide 1,1-dioxide], for which the IC50 stood at 2.2 nM.
